Reference: article PMC7582876, “Antiproliferative Properties of a Few Auranofin-Related Gold(I) and Silver(I) Complexes in Leukemia Cells and their Interferences with the Ubiquitin Proteasome System” (Molecules, 2020)
pIC50: −log10 of the molar value.

Tests used:
[1] = molecular target: T1, bovine pancreatic α-chymotrypsin (Bos taurus, UniProt P00766); experiment: Bovine pancreatic α-chymotrypsin inhibition screening; format: biochemical; conditions: over 10 min
T1 construct: from tissue; host or cells: bovine pancreas (from the enzyme's name only)
Procedure: 20S proteasome, isolated and purified from human erythrocytes, was obtained from a commercial source (Biomol GmbH, Hamburg, Germany), as well as the peptidic substrates (Bachem, Bubendorf, Switzerland) Suc-Leu-Leu-Val-Tyr-AMC, Boc-Leu-Arg-Arg-AMC and Cbz-Leu-Leu-Glu-AMC for ChT-L, T-L and PGPH (C-L) activity of the enzyme, respectively. The three distinct proteolytic activities of the 20S proteasome were measured by monitoring the hydrolysis of the substrates and detecting the fluorescence of the common product released, i.e., 7-amino-4-methyl coumarin (7-AMC), by means of an Infinite 200 PRO microplate reader (Tecan, Männedorf, Switzerland) at 30 °C with a 380-nm excitation filter and a 460-nm emission filter. All gold and silver complexes were tested against the three proteolytic activities of the 20S proteasome and against Cat-B, Cat-L and bovine pancreatic α-chymotrypsin at 10 µM concentrations over a period of 10 min using an equivalent amount of DMSO as a negative control. […]. The IC50 values were calculated with the program GraFit® using the two-parameter equation. More detailed experimental protocols for the assays against each proteolytic activity of the 20S proteasome, as well as against bovine pancreatic α-chymotrypsin, are already reported elsewhere (see also Supplementary Materials). Cat-B and Cat-L were purchased from Calbiochem, Darmstadt, Germany, and the related assays were performed as previously described. The employed fluorogenic substrate for both cysteine proteases was Cbz-Phe-Arg-AMC (80 µM for Cat-B; 5 µM for Cat-L).
Assay for Bovine Pancreatic α-Chymotrypsin Inhibition
The enzyme ([…]) was incubated at 20 °C with the test compound present at 10
µM (screening assay). The reaction buffer consisted of 50 mM Tris buffer pH 8.0
containing 100 mM NaCl, 5 mM EDTA and 7.5% DMSO. Product release from substrate
hydrolysis ([…] final concentration, Suc-Leu-Leu-Val-Tyr-AMC from Bachem) was
determined over a period of 10 min. […]

[2] = test system: human embryonic kidney cells (HEK293); design: method as in PMID 29057040; conditions: previously assessed, ref [18], read-out: IC50, cell viability of healthy cells (HEK293); cited from earlier work
[3] = test system: human fibroblast cells (HDF); design: method as in PMID 29057040; conditions: previously assessed, ref [18], read-out: IC50, cell viability of healthy cells (HDF); cited from earlier work

Structure (SMILES)	Bovine Pancreatic α-Chymotrypsin Inhibition (%) at 10 µM [1]	pIC50 [2]	pIC50 [3]
CCP(CC)CC.[Br][Au] [Au(PEt3)Br]	n.i.	–	–
CC[P](CC)(CC)[Au][I] [Au(PEt3)I]	n.i.	< 5.30	< 5.30
CC[PH](CC)(CC)[Ag][Cl] [Ag(PEt3)Cl]	n.i.	–	–
CC[PH](CC)(CC)[Ag][Br] [Ag(PEt3)Br]	n.i.	–	–
CCP(CC)CC.CCP(CC)CC.O=[N+]([O-])[O-].[Ag+] [[Ag(PEt3)2]NO3]	n.i.	–	–
CCP(CC)CC.[Au+].[Cl-] [Au(PEt3)Cl]	n.i.	< 5.30	< 5.30
CC(=O)OC[C@H]1O[C@@H]([S-])[C@H](OC(C)=O)[C@@H](OC(C)=O)[C@@H]1OC(C)=O.CCP(CC)CC.[Au+] [auranofin, Auranofin]	n.i. ^a	< 5.30	< 5.30
CC[PH](CC)(CC)[Ag][I] [Ag(PEt3)I]	n.i.	–	–
